Measured values published in publication PMC3914206.

Tests used:
Type in all cases: binding
Conditions in all cases: Compound Concentration 10 µM
panel of 442 kinases [1] = biological target: T1, panel of 442 kinases (Homo sapiens, UniProt Q8NEV4)
T1 construct: purchased KINOMEscan
Excerpt: (§1) We assessed the selectivity of members of this scaffold using the KINOMEscan methodology across a near comprehensive panel of 442 kinases [[18,27]].

panel of 442 kinases [2] = biological target: T2, panel of 442 kinases (Homo sapiens, UniProt P50613)
T2 construct: purchased KINOMEscan
Excerpt: as §1

panel of 442 kinases [3] = biological target: T3, panel of 442 kinases (Homo sapiens, UniProt P08631)
T3 construct: purchased KINOMEscan
Excerpt: as §1

T1 sequence (Q8NEV4 whole entry): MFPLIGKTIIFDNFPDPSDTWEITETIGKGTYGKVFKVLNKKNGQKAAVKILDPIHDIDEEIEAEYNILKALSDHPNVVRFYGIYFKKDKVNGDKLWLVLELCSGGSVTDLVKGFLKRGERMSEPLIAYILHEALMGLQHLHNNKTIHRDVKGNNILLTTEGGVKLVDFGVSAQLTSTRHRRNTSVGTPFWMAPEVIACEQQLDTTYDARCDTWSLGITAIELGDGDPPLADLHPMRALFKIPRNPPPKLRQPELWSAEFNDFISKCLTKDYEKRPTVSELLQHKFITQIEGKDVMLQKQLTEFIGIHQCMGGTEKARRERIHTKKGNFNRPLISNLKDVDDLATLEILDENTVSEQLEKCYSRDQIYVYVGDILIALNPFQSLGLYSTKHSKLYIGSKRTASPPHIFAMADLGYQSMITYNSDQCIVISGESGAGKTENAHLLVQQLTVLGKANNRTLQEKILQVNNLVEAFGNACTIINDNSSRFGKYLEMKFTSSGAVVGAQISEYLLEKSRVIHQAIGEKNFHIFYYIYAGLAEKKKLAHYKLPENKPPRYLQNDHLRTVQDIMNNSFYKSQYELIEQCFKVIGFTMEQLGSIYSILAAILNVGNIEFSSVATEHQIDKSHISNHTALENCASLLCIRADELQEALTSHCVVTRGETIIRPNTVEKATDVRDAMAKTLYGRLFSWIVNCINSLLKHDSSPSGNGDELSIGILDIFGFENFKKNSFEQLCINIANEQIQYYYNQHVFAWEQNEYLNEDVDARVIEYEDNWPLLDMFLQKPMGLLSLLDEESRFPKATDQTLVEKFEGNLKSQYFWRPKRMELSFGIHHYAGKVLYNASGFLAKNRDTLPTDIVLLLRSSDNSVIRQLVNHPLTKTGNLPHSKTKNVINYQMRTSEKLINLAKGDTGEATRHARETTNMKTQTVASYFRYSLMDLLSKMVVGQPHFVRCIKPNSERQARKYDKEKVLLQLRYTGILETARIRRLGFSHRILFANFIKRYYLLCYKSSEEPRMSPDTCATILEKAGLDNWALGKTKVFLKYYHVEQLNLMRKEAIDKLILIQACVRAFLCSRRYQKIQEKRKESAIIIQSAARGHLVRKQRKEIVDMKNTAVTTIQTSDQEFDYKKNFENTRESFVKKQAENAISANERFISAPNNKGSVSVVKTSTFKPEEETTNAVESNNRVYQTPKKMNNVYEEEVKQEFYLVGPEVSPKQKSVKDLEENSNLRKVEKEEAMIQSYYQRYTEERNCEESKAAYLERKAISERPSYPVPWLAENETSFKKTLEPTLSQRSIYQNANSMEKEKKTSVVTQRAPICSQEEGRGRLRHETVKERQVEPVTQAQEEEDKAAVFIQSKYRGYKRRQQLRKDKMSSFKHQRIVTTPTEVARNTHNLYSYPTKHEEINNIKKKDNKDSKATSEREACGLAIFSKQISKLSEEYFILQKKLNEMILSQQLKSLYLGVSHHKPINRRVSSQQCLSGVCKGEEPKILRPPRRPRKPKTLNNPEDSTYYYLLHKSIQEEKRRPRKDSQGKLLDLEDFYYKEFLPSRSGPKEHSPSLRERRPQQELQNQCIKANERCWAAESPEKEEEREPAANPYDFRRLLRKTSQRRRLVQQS
T2 sequence (P50613 whole entry): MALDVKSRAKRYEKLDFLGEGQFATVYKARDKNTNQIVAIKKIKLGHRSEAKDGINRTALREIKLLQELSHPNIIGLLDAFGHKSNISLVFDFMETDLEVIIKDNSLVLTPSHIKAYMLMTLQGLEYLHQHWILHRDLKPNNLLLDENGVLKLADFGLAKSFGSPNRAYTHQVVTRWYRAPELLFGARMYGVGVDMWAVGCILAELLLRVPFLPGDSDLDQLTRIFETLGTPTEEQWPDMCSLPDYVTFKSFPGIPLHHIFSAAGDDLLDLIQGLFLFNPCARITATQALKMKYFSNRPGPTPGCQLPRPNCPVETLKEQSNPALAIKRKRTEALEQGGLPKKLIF
T3 sequence (P08631 whole entry): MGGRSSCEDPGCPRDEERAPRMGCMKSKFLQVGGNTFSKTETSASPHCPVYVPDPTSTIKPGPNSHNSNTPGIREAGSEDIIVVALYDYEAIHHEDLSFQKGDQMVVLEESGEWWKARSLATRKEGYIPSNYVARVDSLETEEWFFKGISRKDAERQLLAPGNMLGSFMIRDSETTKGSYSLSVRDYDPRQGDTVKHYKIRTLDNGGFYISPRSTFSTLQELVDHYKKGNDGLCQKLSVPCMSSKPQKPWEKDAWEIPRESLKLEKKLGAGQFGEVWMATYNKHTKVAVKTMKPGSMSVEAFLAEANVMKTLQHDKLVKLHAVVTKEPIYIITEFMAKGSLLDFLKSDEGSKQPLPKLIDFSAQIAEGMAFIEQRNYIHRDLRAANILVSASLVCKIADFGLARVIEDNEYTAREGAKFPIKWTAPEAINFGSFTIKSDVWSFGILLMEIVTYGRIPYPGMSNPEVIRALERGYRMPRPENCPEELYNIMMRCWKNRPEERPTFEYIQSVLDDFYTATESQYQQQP

Structure (SMILES)	KINOMEscan: MYO3A (panel of 442 kinases [1])	KINOMEscan: CDK7 (panel of 442 kinases [2])	KINOMEscan: HCK (panel of 442 kinases [3])
COc1cc(C(=O)N2CCC(N3CCN(C)CC3)CC2)ccc1Nc1ncc2c(n1)N(C)c1ccccc1C(=O)N2C [15 (LRRK2-IN-1)]	94	86	100
COc1cc(C(=O)N2CCC(N3CCN(C)CC3)CC2)ccc1Nc1ncc2c(n1)N(C1CCCC1)c1ccccc1C(=O)N2C [Compound 25, 11-cyclopentyl-2-((2-methoxy-4-(4-(4-methylpiperazin-1-yl)piperidine-1-carbonyl)phenyl)amino)-5-methyl-5H-benzo[e]pyrimido[5,4-b][1,4]diazepin-6(11H)-one]	86	18	97
CCOc1cc(C(=O)N2CCC(N3CCN(C)CC3)CC2)ccc1Nc1ncc2c(n1)N(C1CCCC1)c1ccccc1C(=O)N2C [Compound 26]	100	57	100
